Data as given in patent US4411908A, “Imidazoline derivatives as presynaptic α2 -adrenoreceptor antagonists” (priority 1981, dated 1983).
Where a name gives a salt, the structure may show the parent alone. Read-outs that look alike come from different tables or passages of the source.

What was measured:
[1] = system: presynaptic α-adrenoreceptor (vas deferens, pithed rat); experiment: Presynaptic α-adrenoreceptor antagonism in the pithed rat (reversal of clonidine block on vas deferens, i.v.); details: for i.v. dose of antagonist causing 50% reversal of clonidine block on vas deferens: Table 3, cumulative i.v. dosing, clonidine 100 μg/kg i.v., mean of a minimum of 4 rats
Protocol: The test drugs were injected intravenously in a cumulative dosing schedule and their abilities to reverse the inhibition of hypogastric nerve stimulation reflected their presynaptic antagonism.

[2] = biological target: T1, postsynaptic α-adrenoreceptor (rat anococcygeus muscle) (Rattus norvegicus, UniProt P43140); experiment: Postsynaptic α-adrenoreceptor antagonism vs noradrenaline contractions, isolated rat anococcygeus muscle; format: cell-based
T1 construct: the rat anococcygeus muscle is used to establish postsynaptic α-adrenoreceptor activity; from tissue; host or cells: isolated rat anococcygeus muscle
T1 sequence (P43140 1-466): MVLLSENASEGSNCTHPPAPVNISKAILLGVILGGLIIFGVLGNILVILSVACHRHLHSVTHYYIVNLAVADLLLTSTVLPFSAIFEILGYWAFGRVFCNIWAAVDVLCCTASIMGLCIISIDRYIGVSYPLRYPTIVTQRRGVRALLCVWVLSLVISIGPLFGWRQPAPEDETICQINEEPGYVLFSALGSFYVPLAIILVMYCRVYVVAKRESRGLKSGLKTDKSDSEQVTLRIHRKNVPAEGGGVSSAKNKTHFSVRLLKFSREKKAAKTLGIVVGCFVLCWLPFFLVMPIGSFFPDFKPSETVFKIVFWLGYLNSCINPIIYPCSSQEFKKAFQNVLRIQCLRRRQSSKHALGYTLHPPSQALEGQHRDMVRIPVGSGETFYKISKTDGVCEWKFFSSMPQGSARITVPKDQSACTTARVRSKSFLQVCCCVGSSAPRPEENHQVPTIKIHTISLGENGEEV
Text: This in vitro model is particularly useful as an initial screen for studying presynaptic activity in isolation since the physiological nature of the vas deferens tissue is such that the postsynaptic receptors located therein are particularly inaccessible to exogenous agents. In consequence an alternative tissue, the rat anococcygeus muscle is used to establish postsynaptic α-adrenoreceptor activity. Antagonism of noradrenaline contractions is used to determine pA2 values at postsynaptic α-adrenoreceptors.

[3] = biological target: T2, presynaptic α2-adrenoreceptor (rat vas deferens) (Rattus norvegicus, UniProt P22909); experiment: Presynaptic α-adrenoreceptor antagonism vs clonidine, isolated rat vas deferens (0.1 Hz stimulation); format: cell-based
T2 construct: on the rat vas deferens stimulated at a frequency of 0.1 Hz; from tissue; host or cells: isolated rat vas deferens
T2 sequence (P22909 1-465): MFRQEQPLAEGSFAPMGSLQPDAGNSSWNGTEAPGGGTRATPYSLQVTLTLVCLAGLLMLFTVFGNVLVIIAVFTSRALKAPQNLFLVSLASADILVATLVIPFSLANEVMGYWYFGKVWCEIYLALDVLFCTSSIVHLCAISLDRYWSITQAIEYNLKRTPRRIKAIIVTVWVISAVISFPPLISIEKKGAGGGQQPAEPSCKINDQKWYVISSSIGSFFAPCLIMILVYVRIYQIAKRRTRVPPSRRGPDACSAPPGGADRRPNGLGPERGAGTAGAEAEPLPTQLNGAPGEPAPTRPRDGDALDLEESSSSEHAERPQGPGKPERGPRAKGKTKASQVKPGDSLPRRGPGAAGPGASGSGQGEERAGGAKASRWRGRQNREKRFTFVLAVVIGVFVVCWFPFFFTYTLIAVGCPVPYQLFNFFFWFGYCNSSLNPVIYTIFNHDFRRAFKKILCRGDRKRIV

[4] = system: postsynaptic α-adrenoreceptor (pithed rat); experiment: Postsynaptic α-adrenoreceptor agonist activity in the pithed rat (diastolic blood pressure); details: for i.v. dose causing 50 mmHg increase in diastolic blood pressure: Table 5, naive pithed rats
Protocol: In vivo presynaptic α-adrenoreceptor antagonist activity was determined using the methods outlined in section 2.

[5] = biological target: T3, postsynaptic α-adrenoreceptor (anococcygeus muscle) (Rattus norvegicus, UniProt P43140); experiment: Postsynaptic α-adrenoreceptor agonist activity, isolated anococcygeus muscle; format: cell-based; details: Table 4; negative log of molar concentration giving 50% maximum contraction; mean of a minimum of 3 experiments; read-out: Postsynaptic agonism pD2 (anococcygeus) (converted)
T3 construct: compound giving 50% maximum contraction in this instance, of the anococcygeus muscle; from tissue; host or cells: isolated anococcygeus muscle (rat)
T3 sequence (P43140 1-466): T1 sequence (P43140 1-466)

CN1CCN2c3ccccc3Cc3ccccc3C2C1 (stereo not drawn) [Mianserin, reference compound]
maximum reversal of the inhibitory effects of clonidine on hypogastric nerve stimulation ([1]; cumulative intravenous dose of 4.4 mg/kg): 36%

COC(=O)[C@@H]1[C@H]2C[C@H]3c4[nH]c5ccccc5c4CCN3C[C@@H]2CC[C@@H]1O [Yohimbine HCl, reference compound]
i.v. dose of antagonist causing 50% reversal of clonidine block on vas deferens [1]: 0.86 mg/kg

CN1CCN2c3ccccc3Cc3ccccc3C2C1 (stereo not drawn) [Mianserin HCl, reference compound]
i.v. dose of antagonist causing 50% reversal of clonidine block on vas deferens [1]: > 4.4 mg/kg

Cc1ccc(N(CC2=NCCN2)c2cccc(O)c2)cc1 [Phentolamine mesylate, reference compound]
i.v. dose of antagonist causing 50% reversal of clonidine block on vas deferens [1]: 0.12 mg/kg

c1ccc2oc(C3=NCCN3)cc2c1 [Compound A, 2-(2-benzofuranyl)-2-imidazoline, reference compound]
Kb ([2]; Table 4, rat anococcygeus muscle, read-out: postsynaptic antagonist pA2 (rat anococcygeus muscle) (converted)): 5750 nM
Kb ([3]; Table 4, isolated rat vas deferens, mean of a minimum of 3 experiments): 832 nM

CNC[C@H](O)c1cccc(O)c1 [Phenylephrine, reference compound]
i.v. dose causing 50 mmHg increase in diastolic blood pressure [4]: 0.030 mg/kg

Clc1cccc(Cl)c1N=C1NCCN1 [Clonidine, reference compound]
i.v. dose causing 50 mmHg increase in diastolic blood pressure [4]: 0.003 mg/kg

Clc1ccc2c(c1)CC(C1=NCCN1)O2 (stereo not drawn) [Example 5, 2-[2-(5-chloro-2,3-dihydrobenzofuranyl)]-2-imidazoline hydrochloride]
i.v. dose of antagonist causing 50% reversal of clonidine block on vas deferens [1]: 0.102 mg/kg
relative potency against in vivo presynaptic α-adrenoreceptor stimulant effects of clonidine ([1]; compound of Example 5 compared with phentolamine): approximately equipotent
potency relative to yohimbine in pithed rats ([1]; vs yohimbine, i.v. (Table 3)): approximately 8 times
Kb ([2]; Table 2, isolated rat anococcygeus, mean of a minimum of 5 experiments, read-out: Postsynaptic antagonism pA2 vs Noradrenaline (anococcygeus) (converted)): 631 nM
Kb [3]: 6.31 nM
Pre/post synaptic ratio ([3]; antagonism vs clonidine (rat vas deferens) to antagonism vs noradrenaline (rat anococcygeus)): 100

c1ccc2c(c1)CC(C1=NCCN1)O2 (stereo not drawn) [Example 6, 2-[2-(2,3-dihydrobenzofuranyl)]-2-imidazoline hydrochloride]
EC50 [5]: 501 nM
i.v. dose causing 50 mmHg increase in diastolic blood pressure [4]: 0.020 mg/kg
potency as postsynaptic α-adrenoreceptor agonist relative to phenylephrine ([4]; vs phenylephrine, conclusion of section 4): slightly more potent than phenylephrine
i.v. dose causing 50% reversal of clonidine block on vas deferens ([1]; Table 5): 0.030 mg/kg
Kb [3]: 3.16 nM
presynaptic α-adrenoreceptor antagonist properties ([3]; qualitative, b182: in both isolated tissues and intact animals): displays presynaptic α-adrenoreceptor antagonist properties
potency as presynaptic α2 antagonist relative to the analogous dehydro compound ([3]; vs dehydro compound (Compound A), isolated vas deferens): more than 200 times
